According to patent US20210244712A1, “METHODS FOR TREATING PATIENTS WITH CANCER HAVING DEFECTS IN CYCLIN D REGULATION” (NysnoBio Ireland DAC, priority 2018, published 2021):

Legend:
Test in all cases: Cell proliferation assay
Format in all cases: cell-based
SK-OV-3 = conditions: Homo sapiens, Table 7a, Ovarian (SKOV3)
Method in brief: (§1)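 After overnight attachment, cells were exposed for 72 hrs at 37° C. to a range of compound concentrations. Viable cell mass was then estimated by hydrolysis of p-nitrophenol phosphate over 2 hours at pH 5.5, with absorbance compared against vehicle wells.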

Mino = conditions: Homo sapiens; Mantle Cell Mino; overexpression of Cyclin D
Method in brief: as §1

SW480 = conditions: Homo sapiens, 72 hrs, read-out: Cell Viability: IC50
Method in brief: as §1

SK-BR-3 = conditions: Homo sapiens, 72 hrs, read-out: Cell Viability: IC50
Method in brief: as §1

MSTO-211H = conditions: Homo sapiens, 72 hrs, read-out: Cell Viability: IC50
Method in brief: as §1

SK-CO-1 = conditions: Homo sapiens, 72 hrs, read-out: Cell Viability: IC50
Method in brief: as §1

Hutu 80 = conditions: Homo sapiens, HuTu80, 72 hrs, read-out: Cell Viability: IC50
Method in brief: as §1

JIMT-1 = conditions: Homo sapiens, 72 hrs, read-out: Cell Viability: IC50
Method in brief: as §1

Calu-6 = conditions: Homo sapiens, 72 hrs, read-out: Cell Viability: IC50
Method in brief: as §1

BT-474 = conditions: Homo sapiens, 72 hrs, read-out: Cell Viability: IC50
Method in brief: as §1

MDA-MB-436 = conditions: Homo sapiens, 72 hrs, read-out: Cell Viability: IC50
Method in brief: as §1

OVISE = conditions: 72 hrs, read-out: Cell Viability: IC50
Method in brief: as §1

OVSAHO = conditions: Homo sapiens, 72 hrs, read-out: Cell Viability: IC50
Method in brief: as §1

T-47D = conditions: Homo sapiens, T47D, 72 hrs, read-out: Cell Viability: IC50
Method in brief: as §1

Calu-1 = conditions: Homo sapiens, 72 hrs, read-out: Cell Viability: IC50
Method in brief: as §1

OVTOKO = conditions: 72 hrs, read-out: Cell Viability: IC50
Method in brief: as §1

NCl-H1703 = conditions: 72 hrs, read-out: Cell Viability: IC50
Method in brief: as §1

ZR-75-1 = conditions: Homo sapiens, 72 hrs, read-out: Cell Viability: IC50
Method in brief: as §1

NCl-H226 = conditions: 72 hrs, read-out: Cell Viability: IC50
Method in brief: as §1

COV504 = conditions: 72 hrs, read-out: Cell Viability: IC50
Method in brief: as §1

HCT-8 = conditions: Homo sapiens, 72 hrs, read-out: Cell Viability: IC50
Method in brief: as §1

HCC38 = conditions: Homo sapiens, 72 hrs, read-out: Cell Viability: IC50
Method in brief: as §1

NC-H196 = conditions: 72 hrs, read-out: Cell Viability: IC50
Method in brief: as §1

DLD-1 = conditions: Homo sapiens, 72 hrs, read-out: Cell Viability: IC50
Method in brief: as §1

HT-29 = conditions: Homo sapiens, 72 hrs, read-out: Cell Viability: IC50
Method in brief: as §1

LOVO = conditions: Homo sapiens, 72 hrs, read-out: Cell Viability: IC50
Method in brief: as §1

Caco-2 = conditions: Homo sapiens, 72 hrs, read-out: Cell Viability: IC50
Method in brief: as §1

MDA-MB-231 = conditions: Homo sapiens, 72 hrs, read-out: Cell Viability: IC50
Method in brief: as §1

HCC1954 = conditions: Homo sapiens, 72 hrs, read-out: Cell Viability: IC50
Method in brief: as §1

NCl-H1395 = conditions: 72 hrs, read-out: Cell Viability: IC50
Method in brief: as §1

SW527 = conditions: 72 hrs, read-out: Cell Viability: IC50
Method in brief: as §1

MDA-MB-453 = conditions: Homo sapiens, 72 hrs, read-out: Cell Viability: IC50
Method in brief: as §1

LS174T = conditions: Homo sapiens, 72 hrs, read-out: Cell Viability: IC50
Method in brief: as §1

SK-LU-1 = conditions: Homo sapiens, 72 hrs, read-out: Cell Viability: IC50
Method in brief: as §1

RKO = conditions: Homo sapiens, 72 hrs, read-out: Cell Viability: IC50
Method in brief: as §1

KPL-1 = conditions: 72 hrs, read-out: Cell Viability: IC50
Method in brief: as §1

SW948 = conditions: Homo sapiens, 72 hrs, read-out: Cell Viability: IC50
Method in brief: as §1

NCl-H292 = conditions: 72 hrs, read-out: Cell Viability: IC50
Method in brief: as §1

MDA-MB-468 = conditions: Homo sapiens, 72 hrs, read-out: Cell Viability: IC50
Method in brief: as §1

Compound: Cc1ccccc1C(=O)Nc1nc(NC(=O)c2ccccc2C)n(-c2ccc(OC(F)(F)F)cc2)n1 [Compound 42, N,N′-(1-(4-(trifluoromethoxy)phenyl)-1H-1,2,4-triazole-3,5-diyl)bis(2-methylbenzamide)]
- EC50 (SK-OV-3): 0.376 µM
- IC50 (Mino): 0.345 µM

Compound: Cc1ccccc1C(=O)Nc1nc(NC(=O)c2ccccc2C)n(-c2ccccc2)n1 [Compound F, 2-methyl-N-[5-[(2-methylbenzoyl)amino]-1-phenyl-1,2,4-triazol-3-yl]benzamide]
- IC50 (SW480): 3.49 µM
- IC50 (SK-BR-3): 3.05 µM
- IC50 (MSTO-211H): 2.31 µM
- IC50 (SK-CO-1): 0.98 µM
- IC50 (Hutu 80): 1.63 µM
- IC50 (JIMT-1): 8.49 µM
- IC50 (Calu-6): 1.89 µM
- IC50 (BT-474): 3.03 µM
- IC50 (MDA-MB-436): 6.55 µM
- IC50 (OVISE): 7.33 µM
- IC50 (OVSAHO): 6.53 µM
- IC50 (T-47D): 7.37 µM
- IC50 (Calu-1): 43.3 µM
- IC50 (OVTOKO): > 10 µM
- IC50 (NCl-H1703): 1.85 µM
- IC50 (ZR-75-1): 3.87 µM
- IC50 (NCl-H226): 7.33 µM
- IC50 (COV504): 2 µM
- IC50 (HCT-8): 4.74 µM
- IC50 (HCC38): 5.77 µM
- IC50 (NC-H196): 2.83 µM
- IC50 (DLD-1): 7.49 µM
- IC50 (HT-29): 2.96 µM
- IC50 (LOVO): 5.64 µM
- IC50 (Caco-2): > 10 µM
- IC50 (MDA-MB-231): 6.98 µM
- IC50 (HCC1954): 3.69 µM
- IC50 (NCl-H1395): 7.6 µM
- IC50 (SW527): 6.69 µM
- IC50 (MDA-MB-453): 3.04 µM
- IC50 (LS174T): 2.37 µM
- IC50 (SK-LU-1): 5.73 µM
- IC50 (RKO): 4.12 µM
- IC50 (KPL-1): 3.86 µM
- IC50 (SW948): 8.37 µM
- IC50 (NCl-H292): 0.95 µM
- IC50 (MDA-MB-468): 3.18 µM
